In ChEMBL document CHEMBL3886646, “Cyclohexylamine derivatives having β2 adrenergic agonist and M3 muscarinic antagonist activities” (2016):

Legend:
[1] = target: Beta-2 adrenergic receptor (Homo sapiens, UniProt P07550); assay: Adrenergic Receptor Binding Assay: The study of binding to human adrenergic beta1 and beta2 receptors was performed using commercial membranes prepared from Sf9 cells where they are overexpressed (Perkin Elmer). The membrane suspensions (16 μg/well for beta1 and 5 μg/well for beta2) in assay buffer (75 mM Tris/HCl with 12.5 mM MgCl2 and 2 mM EDTA pH=7.4) were incubated with 0.14 or 0.6 nM of 3H-CGP12177 (Amersham) for beta 1 and beta 2 receptors respectively in a final volume of 250 μl, in GFC Multiscreen 96 well plates (Millipore) previously treated with assay buffer containing 0.3% PEI (Sigma). Non specific binding was measured in the presence of 1 μM propanolol. Incubation was maintained for 60 minutes at room temperature and with gentle shaking. The binding reactions were terminated by filtration and washing with 2.5 volumes of Tris/HCl 50 mM pH=7.4.; assay type: cell membranes
Beta-2 adrenergic receptor, sequence (P07550 whole entry): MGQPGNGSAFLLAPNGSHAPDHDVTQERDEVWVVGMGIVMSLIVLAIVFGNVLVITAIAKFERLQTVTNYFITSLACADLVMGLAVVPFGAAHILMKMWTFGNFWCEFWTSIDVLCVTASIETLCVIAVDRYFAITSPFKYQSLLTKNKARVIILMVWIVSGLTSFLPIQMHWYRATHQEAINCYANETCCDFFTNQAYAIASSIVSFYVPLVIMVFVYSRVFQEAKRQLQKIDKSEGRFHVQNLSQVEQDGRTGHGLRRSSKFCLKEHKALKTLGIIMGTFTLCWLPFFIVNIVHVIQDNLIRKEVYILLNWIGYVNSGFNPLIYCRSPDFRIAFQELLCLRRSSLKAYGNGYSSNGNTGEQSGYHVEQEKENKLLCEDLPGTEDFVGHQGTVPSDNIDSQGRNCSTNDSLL

[2] = target: Muscarinic acetylcholine receptor M3 (Homo sapiens, UniProt P20309); assay: Muscarinic Receptor Binding Assay: The study of binding to human muscarinic M1, M2, M3, M4 and M5 receptors was performed using commercial membranes (Perkin Elmer) prepared from CHO-K1 cells. Radioligand binding experiments were conducted in 96 polypropylene well plates in a total volume of 200 μl. All reagents were dissolved in assay binding buffer (PBS with calcium and magnesium, SIGMA), except compounds that were dissolved in DMSO 100%. Non-specific binding (NSB) was measured in the presence of 1 μM atropine. [3H]-NMS was used as the radioligand at a concentration of 1 nM for M2, M3 and M5 and 0.3 nM for M1 and M4. [3H]-NMS and antagonists were incubated with membranes that express human muscarinic receptors M1, M2, M3, M4 and M5 at concentrations of 8.1, 10, 4.9, 4.5 and 4.9 μg/well, respectively. After an incubation period of two hours with gentle shaking, 150 μl of the reaction mix were transferred to 96 GF/C filter plates (Millipore), previously treated with wash buffer (Tris 50 mM; NaCl 100 mM; pH: 7.4), containing 0.05% PEI (Sigma) during one hour. Bound and free [3H]-NMS were separated by rapid vacuum filtration in a manifold from Millipore and washed four times with ice cold wash buffer. After drying 30 min, 30 μl of OPTIPHASE Supermix were added to each well and radioactivity quantified using a Microbeta microplate scintillation counter.; assay type: cell-based
Muscarinic acetylcholine receptor M3, sequence (P20309 whole entry): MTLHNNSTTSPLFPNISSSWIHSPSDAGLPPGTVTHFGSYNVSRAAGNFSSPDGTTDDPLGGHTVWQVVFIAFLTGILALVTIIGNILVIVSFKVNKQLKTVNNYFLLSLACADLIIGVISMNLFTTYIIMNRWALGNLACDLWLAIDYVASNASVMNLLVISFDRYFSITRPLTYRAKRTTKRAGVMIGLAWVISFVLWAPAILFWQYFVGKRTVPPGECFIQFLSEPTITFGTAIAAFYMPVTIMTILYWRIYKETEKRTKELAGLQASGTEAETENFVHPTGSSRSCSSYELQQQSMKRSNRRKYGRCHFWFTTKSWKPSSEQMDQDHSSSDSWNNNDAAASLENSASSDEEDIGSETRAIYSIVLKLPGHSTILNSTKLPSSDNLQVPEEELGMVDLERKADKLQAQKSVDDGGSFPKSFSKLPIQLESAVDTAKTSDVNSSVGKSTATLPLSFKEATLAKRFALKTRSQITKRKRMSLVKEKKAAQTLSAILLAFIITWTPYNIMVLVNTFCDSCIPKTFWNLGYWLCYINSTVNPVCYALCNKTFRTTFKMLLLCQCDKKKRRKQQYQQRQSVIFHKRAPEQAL

How did the IC50 [1] turn out when CN(CCC(=O)Nc1ccc(CNC[C@H](O)c2ccc(O)c3[nH]c(=O)ccc23)cc1Cl)[C@H]1CC[C@H](OC(=O)C(O)(c2cccs2)c2cccs2)CC1 was run?
Its IC50 is 6.7 nM.

And the IC50 [2]?
The IC50 was 2.2 nM.

How did the IC50 [1] turn out when CN(CCOc1ccc(CCNC[C@H](O)c2ccc(O)c3[nH]c(=O)ccc23)cc1)C1CCC(OC(=O)C(O)(c2cccs2)c2cccs2)CC1 (stereo partly specified) was run?
The IC50 was 36 nM.

And the IC50 [2]?
Its IC50 is 1.3 nM.

COc1cc(NC(=O)CCN(C)[C@H]2CC[C@H](OC(=O)C(O)(c3cccs3)c3cccs3)CC2)c(Cl)cc1CNC[C@H](O)c1ccc(O)c2[nH]c(=O)ccc12 was tested. Which IC50 [1] did it give?
Its IC50 is 8.5 nM.

And the IC50 [2]?
The IC50 was 1.1 nM.
